Reference: article PMC6677322, “Dafachronic acid promotes larval development in Haemonchus contortus by modulating dauer signalling and lipid metabolism” (PLoS Pathogens, 2019)

Tests used:
Ac-DAF-12 = molecular target: T1, Ac-DAF-12 (Ancylostoma caninum, UniProt A0A368G7M4); assay: luciferase reporter assay in HEK293 cells; assay type: cell-based
T1 construct: gene ANCCAN_15412

Hc-DAF-12 = Hc-DAF-12 (Haemonchus contortus, UniProt A0A650FMZ7); assay: luciferase reporter assay in HEK293 cells transfected with Hc-DAF-12; assay type: cell-based
Sequence of Hc-DAF-12 (A0A650FMZ7 entry or part of it): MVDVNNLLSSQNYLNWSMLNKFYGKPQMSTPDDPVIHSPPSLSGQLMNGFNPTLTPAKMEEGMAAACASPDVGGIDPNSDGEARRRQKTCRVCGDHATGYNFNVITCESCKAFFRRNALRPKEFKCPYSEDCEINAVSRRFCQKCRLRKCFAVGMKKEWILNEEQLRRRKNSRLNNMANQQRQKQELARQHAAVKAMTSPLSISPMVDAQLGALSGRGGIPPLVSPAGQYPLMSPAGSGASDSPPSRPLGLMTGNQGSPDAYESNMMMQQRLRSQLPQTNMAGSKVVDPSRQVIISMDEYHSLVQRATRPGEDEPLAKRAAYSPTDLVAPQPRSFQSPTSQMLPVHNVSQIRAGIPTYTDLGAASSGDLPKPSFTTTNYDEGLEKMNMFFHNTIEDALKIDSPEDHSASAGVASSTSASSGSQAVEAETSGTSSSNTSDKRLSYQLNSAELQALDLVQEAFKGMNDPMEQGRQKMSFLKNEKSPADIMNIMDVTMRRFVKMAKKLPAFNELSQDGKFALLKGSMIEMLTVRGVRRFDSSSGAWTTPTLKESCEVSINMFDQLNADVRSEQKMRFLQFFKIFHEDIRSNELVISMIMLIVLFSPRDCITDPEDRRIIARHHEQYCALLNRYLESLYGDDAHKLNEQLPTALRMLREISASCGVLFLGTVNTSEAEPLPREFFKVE

T1 sequence (A0A368G7M4 entry or part of it): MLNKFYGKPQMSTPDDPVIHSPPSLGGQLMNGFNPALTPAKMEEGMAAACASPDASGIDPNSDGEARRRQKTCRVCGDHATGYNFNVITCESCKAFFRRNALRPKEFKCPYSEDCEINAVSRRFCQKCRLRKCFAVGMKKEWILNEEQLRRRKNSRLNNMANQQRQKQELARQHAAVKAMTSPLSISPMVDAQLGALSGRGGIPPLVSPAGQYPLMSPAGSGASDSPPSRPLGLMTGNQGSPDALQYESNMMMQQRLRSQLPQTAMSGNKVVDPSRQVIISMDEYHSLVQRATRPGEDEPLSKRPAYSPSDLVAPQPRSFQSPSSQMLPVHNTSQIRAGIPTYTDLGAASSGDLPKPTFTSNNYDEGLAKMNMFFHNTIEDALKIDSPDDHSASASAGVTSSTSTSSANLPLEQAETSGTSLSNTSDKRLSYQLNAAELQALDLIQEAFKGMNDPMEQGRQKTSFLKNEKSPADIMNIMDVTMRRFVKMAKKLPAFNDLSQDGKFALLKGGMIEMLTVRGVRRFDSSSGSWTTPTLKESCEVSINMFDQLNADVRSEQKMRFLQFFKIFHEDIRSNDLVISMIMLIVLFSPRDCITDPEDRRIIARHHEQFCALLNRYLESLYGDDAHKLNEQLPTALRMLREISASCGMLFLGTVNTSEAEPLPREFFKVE

Compound `C[C@H](CCC[C@H](C)C(=O)O)[C@H]1CC[C@H]2C3=CC[C@H]4CC(=O)CC[C@]4(C)[C@H]3CC[C@]12C` [(25S)-Δ7-DA] has an EC50 (Ac-DAF-12) of 12.8 nM and an EC50 (Hc-DAF-12) of 12.5 nM.
